Reference: publication PMC12281475, “Mediator Kinase Inhibitor Selectivity and Activity in Colorectal Cancer” (ACS Chemical Biology, 2025)
pIC50: −log10 of the molar value.

Legend:
CDK8 = system: CDK8; design: method as in numbers not given; conditions: reporter displacement assay; previously characterized compounds, no method in this paper; ref numbers not given; read-out: IC50 for in vitro CDK8 binding; cited from earlier work
CDK1_CycA2 = target: T1, CDK1_CycA2 (Homo sapiens, UniProt P06493); assay: Radiometric protein kinase assay (33PanQinase), CDK1_CycA2; format: biochemical
T1 construct: purchased Reaction Biology

CDK1_CycB1 = target: T2, CDK1_CycB1 (Homo sapiens, UniProt P06493); assay: Radiometric protein kinase assay (33PanQinase), CDK1_CycB1; format: biochemical
T2 construct: purchased Reaction Biology

CDK1_CycE1 = target: T3, CDK1_CycE1 (Homo sapiens, UniProt P06493); assay: Radiometric protein kinase assay (33PanQinase), CDK1_CycE1; format: biochemical
T3 construct: purchased Reaction Biology

CDK10_CycQ = CDK10_CycQ (Homo sapiens, UniProt Q15131); assay: Radiometric protein kinase assay (33PanQinase), CDK10_CycQ; format: biochemical; conditions: slope of the IC50 fit
CDK11B 357-795_CycK = CDK11B 357-795_CycK (Homo sapiens, UniProt P21127); assay: Radiometric protein kinase assay (33PanQinase), CDK11B 357-795_CycK; format: biochemical; conditions: slope of the IC50 fit
CDK12_CycK = target: T4, CDK12_CycK (Homo sapiens, UniProt Q9NYV4); assay: Radiometric protein kinase assay (33PanQinase), CDK12_CycK; format: biochemical
T4 construct: purchased Reaction Biology
T4 sequence (Q9NYV4 whole entry): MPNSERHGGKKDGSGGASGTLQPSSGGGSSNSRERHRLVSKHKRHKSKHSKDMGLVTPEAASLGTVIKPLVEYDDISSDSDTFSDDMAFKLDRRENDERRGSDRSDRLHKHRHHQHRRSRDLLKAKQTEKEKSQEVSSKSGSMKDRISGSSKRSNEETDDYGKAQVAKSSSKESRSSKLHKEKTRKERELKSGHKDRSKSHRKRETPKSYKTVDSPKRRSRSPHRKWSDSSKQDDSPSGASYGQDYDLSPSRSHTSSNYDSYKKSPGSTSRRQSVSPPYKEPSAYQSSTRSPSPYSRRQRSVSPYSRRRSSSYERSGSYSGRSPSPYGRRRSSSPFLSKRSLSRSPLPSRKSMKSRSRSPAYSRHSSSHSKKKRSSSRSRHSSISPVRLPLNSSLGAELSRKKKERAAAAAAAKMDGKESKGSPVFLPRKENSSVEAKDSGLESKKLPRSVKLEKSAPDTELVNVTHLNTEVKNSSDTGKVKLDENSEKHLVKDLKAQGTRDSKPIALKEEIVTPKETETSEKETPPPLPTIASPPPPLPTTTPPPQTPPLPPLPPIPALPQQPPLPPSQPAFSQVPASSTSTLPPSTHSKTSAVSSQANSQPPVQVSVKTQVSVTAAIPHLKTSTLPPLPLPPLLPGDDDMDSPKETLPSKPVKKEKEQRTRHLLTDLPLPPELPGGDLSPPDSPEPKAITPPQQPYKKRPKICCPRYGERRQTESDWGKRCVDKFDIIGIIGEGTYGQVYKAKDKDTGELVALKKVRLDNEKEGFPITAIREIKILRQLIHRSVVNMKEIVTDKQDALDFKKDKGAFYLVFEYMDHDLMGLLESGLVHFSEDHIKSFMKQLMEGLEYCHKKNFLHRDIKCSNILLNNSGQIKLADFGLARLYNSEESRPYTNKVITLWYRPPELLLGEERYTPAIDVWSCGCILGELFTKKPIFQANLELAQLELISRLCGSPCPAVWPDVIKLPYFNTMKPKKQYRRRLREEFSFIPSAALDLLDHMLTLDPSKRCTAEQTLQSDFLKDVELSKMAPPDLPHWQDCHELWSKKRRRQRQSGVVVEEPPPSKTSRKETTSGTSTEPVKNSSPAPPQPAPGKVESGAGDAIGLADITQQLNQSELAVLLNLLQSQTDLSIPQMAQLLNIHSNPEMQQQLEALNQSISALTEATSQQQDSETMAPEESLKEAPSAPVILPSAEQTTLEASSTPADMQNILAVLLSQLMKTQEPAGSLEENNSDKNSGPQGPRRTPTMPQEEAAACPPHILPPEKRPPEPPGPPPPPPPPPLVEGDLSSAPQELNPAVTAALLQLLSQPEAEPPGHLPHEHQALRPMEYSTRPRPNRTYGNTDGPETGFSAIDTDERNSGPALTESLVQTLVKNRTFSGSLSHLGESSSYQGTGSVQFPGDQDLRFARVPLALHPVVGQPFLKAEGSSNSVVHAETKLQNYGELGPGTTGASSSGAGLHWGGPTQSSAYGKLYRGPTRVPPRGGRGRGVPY
T4 sequence (O75909 whole entry partner): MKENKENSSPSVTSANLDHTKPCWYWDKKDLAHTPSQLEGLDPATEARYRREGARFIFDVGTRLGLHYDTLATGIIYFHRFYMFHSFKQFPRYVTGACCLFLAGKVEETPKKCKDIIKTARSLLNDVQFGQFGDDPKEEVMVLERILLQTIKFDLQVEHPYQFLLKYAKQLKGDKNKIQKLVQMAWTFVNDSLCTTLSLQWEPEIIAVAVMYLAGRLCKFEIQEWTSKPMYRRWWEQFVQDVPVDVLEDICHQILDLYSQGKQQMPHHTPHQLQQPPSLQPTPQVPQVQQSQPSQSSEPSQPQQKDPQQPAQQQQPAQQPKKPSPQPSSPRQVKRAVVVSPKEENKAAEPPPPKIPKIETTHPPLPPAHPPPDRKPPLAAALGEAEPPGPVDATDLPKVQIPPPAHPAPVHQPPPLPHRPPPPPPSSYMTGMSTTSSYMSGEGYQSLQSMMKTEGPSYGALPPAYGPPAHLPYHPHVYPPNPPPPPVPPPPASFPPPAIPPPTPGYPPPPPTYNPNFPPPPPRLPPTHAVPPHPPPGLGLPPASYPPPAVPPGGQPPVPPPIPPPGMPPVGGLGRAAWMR

CDK13_CycK = target: T5, CDK13_CycK (Homo sapiens, UniProt Q14004); assay: Radiometric protein kinase assay (33PanQinase), CDK13_CycK; format: biochemical
T5 construct: purchased Reaction Biology

CDK14_CycY = CDK14_CycY (Homo sapiens, UniProt O94921); assay: Radiometric protein kinase assay (33PanQinase), CDK14_CycY; format: biochemical; conditions: slope of the IC50 fit
CDK15_CycA2 = target: T6, CDK15_CycA2 (Homo sapiens, UniProt Q96Q40); assay: Radiometric protein kinase assay (33PanQinase), CDK15_CycA2; format: biochemical
T6 construct: purchased Reaction Biology

CDK16_CycY = target: T7, CDK16_CycY (Homo sapiens, UniProt Q00536); assay: Radiometric protein kinase assay (33PanQinase), CDK16_CycY; format: biochemical; conditions: slope of the IC50 fit
T7 construct: purchased Reaction Biology

CDK17_p35NCK = CDK17_p35NCK (Homo sapiens, UniProt Q00537); assay: Radiometric protein kinase assay (33PanQinase), CDK17_p35NCK; format: biochemical; conditions: slope of the IC50 fit
CDK18_CycY = CDK18_CycY (Homo sapiens, UniProt Q07002); assay: Radiometric protein kinase assay (33PanQinase), CDK18_CycY; format: biochemical
Chain of CDK18_CycY (Q07002 whole entry): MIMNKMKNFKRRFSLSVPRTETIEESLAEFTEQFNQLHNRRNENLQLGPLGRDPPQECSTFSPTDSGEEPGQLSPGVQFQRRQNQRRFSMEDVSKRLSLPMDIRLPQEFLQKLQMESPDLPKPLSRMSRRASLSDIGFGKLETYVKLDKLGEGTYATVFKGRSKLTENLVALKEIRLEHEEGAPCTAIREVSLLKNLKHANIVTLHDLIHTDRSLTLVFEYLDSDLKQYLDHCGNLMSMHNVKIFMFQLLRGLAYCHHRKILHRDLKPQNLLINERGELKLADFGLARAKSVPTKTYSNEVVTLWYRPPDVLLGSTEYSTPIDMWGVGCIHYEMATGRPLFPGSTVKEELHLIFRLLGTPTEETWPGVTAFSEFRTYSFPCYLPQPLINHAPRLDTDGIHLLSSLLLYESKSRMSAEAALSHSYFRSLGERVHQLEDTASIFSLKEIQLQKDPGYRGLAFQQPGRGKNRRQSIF
Chain of CDK18_CycY (Q8ND76 whole entry partner): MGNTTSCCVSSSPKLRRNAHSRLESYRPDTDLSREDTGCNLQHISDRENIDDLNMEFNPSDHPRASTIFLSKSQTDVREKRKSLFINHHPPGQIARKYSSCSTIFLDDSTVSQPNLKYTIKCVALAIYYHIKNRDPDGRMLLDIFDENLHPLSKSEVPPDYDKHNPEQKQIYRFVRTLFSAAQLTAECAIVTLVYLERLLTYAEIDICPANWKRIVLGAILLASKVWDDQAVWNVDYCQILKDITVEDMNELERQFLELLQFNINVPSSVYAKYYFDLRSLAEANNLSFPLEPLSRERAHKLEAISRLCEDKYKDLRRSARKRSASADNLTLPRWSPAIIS

CDK19_CycC = target: T8, CDK19_CycC (Homo sapiens, UniProt Q9BWU1); assay: Radiometric protein kinase assay (33PanQinase), CDK19_CycC; format: biochemical
T8 construct: purchased Reaction Biology

CDK2_CycA2 = target: T9, CDK2_CycA2 (Homo sapiens, UniProt P24941); assay: Radiometric protein kinase assay (33PanQinase), CDK2_CycA2; format: biochemical
T9 construct: purchased Reaction Biology

CDK2_CycD1 = target: T10, CDK2_CycD1 (Homo sapiens, UniProt P24941); assay: Radiometric protein kinase assay (33PanQinase), CDK2_CycD1; format: biochemical; conditions: slope of the IC50 fit
T10 construct: purchased Reaction Biology

CDK2_CycE1 = target: T11, CDK2_CycE1 (Homo sapiens, UniProt P24941); assay: Radiometric protein kinase assay (33PanQinase), CDK2_CycE1; format: biochemical
T11 construct: purchased Reaction Biology

CDK20_CycH = CDK20_CycH (Homo sapiens, UniProt Q8IZL9); assay: Radiometric protein kinase assay (33PanQinase), CDK20_CycH; format: biochemical
CDK20_CycT1 = CDK20_CycT1 (Homo sapiens, UniProt Q8IZL9); assay: Radiometric protein kinase assay (33PanQinase), CDK20_CycT1; format: biochemical
CDK3_CycC = target: T12, CDK3_CycC (Homo sapiens, UniProt Q00526); assay: Radiometric protein kinase assay (33PanQinase), CDK3_CycC; format: biochemical
T12 construct: purchased Reaction Biology

CDK3_CycE1 = target: T13, CDK3_CycE1 (Homo sapiens, UniProt Q00526); assay: Radiometric protein kinase assay (33PanQinase), CDK3_CycE1; format: biochemical; conditions: slope of the IC50 fit
T13 construct: purchased Reaction Biology

CDK4_CycD1 = target: T14, CDK4_CycD1 (Homo sapiens, UniProt P11802); assay: Radiometric protein kinase assay (33PanQinase), CDK4_CycD1; format: biochemical; conditions: slope of the IC50 fit
T14 construct: purchased Reaction Biology

CDK4_CycD2 = target: T15, CDK4_CycD2 (Homo sapiens, UniProt P11802); assay: Radiometric protein kinase assay (33PanQinase), CDK4_CycD2; format: biochemical; conditions: slope of the IC50 fit
T15 construct: purchased Reaction Biology

CDK4_CycD3 = target: T16, CDK4_CycD3 (Homo sapiens, UniProt P11802); assay: Radiometric protein kinase assay (33PanQinase), CDK4_CycD3; format: biochemical; conditions: slope of the IC50 fit
T16 construct: purchased Reaction Biology

CDK5_p25NCK = target: T17, CDK5_p25NCK (Homo sapiens, UniProt Q00535); assay: Radiometric protein kinase assay (33PanQinase), CDK5_p25NCK; format: biochemical
T17 construct: purchased Reaction Biology
T17 sequence (Q00535 whole entry): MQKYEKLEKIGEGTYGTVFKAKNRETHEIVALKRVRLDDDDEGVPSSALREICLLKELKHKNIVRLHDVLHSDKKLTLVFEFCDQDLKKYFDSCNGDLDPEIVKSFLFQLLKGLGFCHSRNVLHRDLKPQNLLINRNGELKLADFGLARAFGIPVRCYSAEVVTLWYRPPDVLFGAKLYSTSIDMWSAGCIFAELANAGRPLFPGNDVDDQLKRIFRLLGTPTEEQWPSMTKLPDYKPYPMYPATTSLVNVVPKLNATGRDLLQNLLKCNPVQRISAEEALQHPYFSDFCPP
T17 sequence (Q15078 99-307 partner limits assumed): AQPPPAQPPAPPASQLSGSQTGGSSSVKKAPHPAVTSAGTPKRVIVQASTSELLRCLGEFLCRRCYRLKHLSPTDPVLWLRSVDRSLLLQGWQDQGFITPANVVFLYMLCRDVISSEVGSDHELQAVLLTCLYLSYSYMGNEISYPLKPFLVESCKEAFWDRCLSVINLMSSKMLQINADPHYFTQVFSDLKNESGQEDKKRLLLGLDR

CDK5_p35NCK = target: T18, CDK5_p35NCK (Homo sapiens, UniProt Q00535); assay: Radiometric protein kinase assay (33PanQinase), CDK5_p35NCK; format: biochemical
T18 construct: purchased Reaction Biology
T18 sequence (Q00535 whole entry): as the sequence (Q00535 whole entry) above
T18 sequence (Q15078 whole entry partner): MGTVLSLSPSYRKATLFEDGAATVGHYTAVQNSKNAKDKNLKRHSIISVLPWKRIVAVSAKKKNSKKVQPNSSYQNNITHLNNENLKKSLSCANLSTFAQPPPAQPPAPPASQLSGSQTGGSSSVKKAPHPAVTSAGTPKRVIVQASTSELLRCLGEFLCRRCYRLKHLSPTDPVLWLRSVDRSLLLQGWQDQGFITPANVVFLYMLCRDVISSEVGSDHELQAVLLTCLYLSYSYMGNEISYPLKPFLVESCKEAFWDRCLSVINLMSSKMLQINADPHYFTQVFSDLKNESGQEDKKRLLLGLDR

CDK6_CycD1 = target: T19, CDK6_CycD1 (Homo sapiens, UniProt Q00534); assay: Radiometric protein kinase assay (33PanQinase), CDK6_CycD1; format: biochemical; conditions: slope of the IC50 fit
T19 construct: purchased Reaction Biology

CDK6_CycD2 = target: T20, CDK6_CycD2 (Homo sapiens, UniProt Q00534); assay: Radiometric protein kinase assay (33PanQinase), CDK6_CycD2; format: biochemical; conditions: slope of the IC50 fit
T20 construct: purchased Reaction Biology

CDK6_CycD3 = target: T21, CDK6_CycD3 (Homo sapiens, UniProt Q00534); assay: Radiometric protein kinase assay (33PanQinase), CDK6_CycD3; format: biochemical; conditions: slope of the IC50 fit
T21 construct: purchased Reaction Biology

CDK7_CycH_MAT1 = target: T22, CDK7_CycH_MAT1 (Homo sapiens, UniProt P50613); assay: Radiometric protein kinase assay (33PanQinase), CDK7_CycH_MAT1; format: biochemical; conditions: slope of the IC50 fit
T22 construct: purchased Reaction Biology

CDK8_CycC = target: T23, CDK8_CycC (Homo sapiens, UniProt P49336); assay: Radiometric protein kinase assay (33PanQinase), CDK8_CycC; format: biochemical
T23 construct: purchased Reaction Biology
T23 sequence (P49336 whole entry): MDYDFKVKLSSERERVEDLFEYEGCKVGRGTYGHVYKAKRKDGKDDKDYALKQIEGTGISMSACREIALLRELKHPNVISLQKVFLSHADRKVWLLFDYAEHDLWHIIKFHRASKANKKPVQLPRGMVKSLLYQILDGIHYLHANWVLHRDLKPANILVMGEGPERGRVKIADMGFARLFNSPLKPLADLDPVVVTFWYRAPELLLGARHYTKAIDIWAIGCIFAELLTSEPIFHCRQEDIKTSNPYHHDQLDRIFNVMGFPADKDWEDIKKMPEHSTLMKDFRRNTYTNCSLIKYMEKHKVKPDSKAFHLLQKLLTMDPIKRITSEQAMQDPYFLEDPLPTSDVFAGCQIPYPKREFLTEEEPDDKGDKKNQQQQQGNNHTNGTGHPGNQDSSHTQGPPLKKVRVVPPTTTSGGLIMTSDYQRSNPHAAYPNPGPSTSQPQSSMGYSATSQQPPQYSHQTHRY
T23 sequence (P24863 whole entry partner): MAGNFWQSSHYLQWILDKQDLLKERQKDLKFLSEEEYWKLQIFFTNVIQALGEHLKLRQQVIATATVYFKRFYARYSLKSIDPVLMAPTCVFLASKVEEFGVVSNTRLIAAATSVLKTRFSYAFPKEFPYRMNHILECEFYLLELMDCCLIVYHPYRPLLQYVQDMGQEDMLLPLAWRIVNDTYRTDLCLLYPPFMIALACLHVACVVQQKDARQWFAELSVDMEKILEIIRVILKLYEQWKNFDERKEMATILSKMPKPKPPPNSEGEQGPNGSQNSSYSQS

CDK9_CycK = target: T24, CDK9_CycK (Homo sapiens, UniProt P50750); assay: Radiometric protein kinase assay (33PanQinase), CDK9_CycK; format: biochemical
T24 construct: purchased Reaction Biology

CDK9_CycT1 = target: T25, CDK9_CycT1 (Homo sapiens, UniProt P50750); assay: Radiometric protein kinase assay (33PanQinase), CDK9_CycT1; format: biochemical
T25 construct: purchased Reaction Biology

[1] = highest assay concentration 1.00E-05 M, read-out: IC50
[2] = highest assay concentration 1.00E-05 M

For `Cc1n[nH]c2ncc(C(=O)N3CCC[C@@H]3c3ccc(Cl)cc3)cc12` [MSC2530819], the pIC50 (CDK8) is given as 6.23.
With `Cc1c(Br)c(Br)c2c3c1nc(N1CCNCC1)n3CCC2.Cl` [SEL120-34A, reference compound] the pIC50 (CDK1_CycA2; [1]) was 5.15, the “Hill Slope” value (CDK1_CycA2; slope of the IC50 fit) was -0.95 and the pIC50 (CDK1_CycB1; [2]) was 5.12. For the same compound, the “Hill Slope” value (CDK1_CycB1; slope of the IC50 fit) was -0.55, the pIC50 (CDK1_CycE1; [1]) was 5.30 and the “Hill Slope” value (CDK1_CycE1; slope of the IC50 fit) was -1.01. The “Hill Slope” value (CDK10_CycQ) was -0.83, the “Hill Slope” value (CDK11B 357-795_CycK) was -0.45 and the pIC50 (CDK12_CycK; [2]) was 6.15. The “Hill Slope” value (CDK12_CycK; slope of the IC50 fit) was -0.91, the pIC50 (CDK13_CycK; [1]) was 6.53 and the “Hill Slope” value (CDK13_CycK; slope of the IC50 fit) was -0.51. For the same compound, the “Hill Slope” value (CDK14_CycY) was -0.83, the pIC50 (CDK15_CycA2; [2]) was 5.13 and the “Hill Slope” value (CDK15_CycA2; slope of the IC50 fit) was -0.86. The “Hill Slope” value (CDK16_CycY) was -0.52, the “Hill Slope” value (CDK17_p35NCK) was -0.56 and the pIC50 (CDK18_CycY; [2]) was 5.11. For the same compound, the “Hill Slope” value (CDK18_CycY; slope of the IC50 fit) was -0.81, the pIC50 (CDK19_CycC; [1]) was 6.36 and the “Hill Slope” value (CDK19_CycC; slope of the IC50 fit) was -0.83. The pIC50 (CDK2_CycA2; [1]) was 5.65, the “Hill Slope” value (CDK2_CycA2; slope of the IC50 fit) was -1.14 and the “Hill Slope” value (CDK2_CycD1) was -0.7. The pIC50 (CDK2_CycE1; [1]) was 5.57, the “Hill Slope” value (CDK2_CycE1; slope of the IC50 fit) was -1.13 and the pIC50 (CDK20_CycH; [2]) was 5.95. For the same compound, the “Hill Slope” value (CDK20_CycH; slope of the IC50 fit) was -0.52, the pIC50 (CDK20_CycT1; [2]) was 5.95 and the “Hill Slope” value (CDK20_CycT1; slope of the IC50 fit) was -0.7. For the same compound, the pIC50 (CDK3_CycC; [1]) was 5.32, the “Hill Slope” value (CDK3_CycC; slope of the IC50 fit) was -0.87 and the “Hill Slope” value (CDK3_CycE1) was -0.48. For the same compound, the “Hill Slope” value (CDK4_CycD1) was -0.69, the “Hill Slope” value (CDK4_CycD2) was -0.75 and the “Hill Slope” value (CDK4_CycD3) was -0.78. For the same compound, the pIC50 (CDK5_p25NCK; [2]) was 5.13, the “Hill Slope” value (CDK5_p25NCK; slope of the IC50 fit) was -0.75 and the pIC50 (CDK5_p35NCK; [2]) was 5.34. For the same compound, the “Hill Slope” value (CDK5_p35NCK; slope of the IC50 fit) was -0.92, the “Hill Slope” value (CDK6_CycD1) was -0.06 and the “Hill Slope” value (CDK6_CycD2) was -0.78. The “Hill Slope” value (CDK6_CycD3) was -0.38, the “Hill Slope” value (CDK7_CycH_MAT1) was -0.9 and the pIC50 (CDK8_CycC; [1]) was 6.71. For the same compound, the “Hill Slope” value (CDK8_CycC; slope of the IC50 fit) was -0.81, the pIC50 (CDK9_CycK; [2]) was 6.22 and the “Hill Slope” value (CDK9_CycK; slope of the IC50 fit) was -1.14. For the same compound, the pIC50 (CDK9_CycT1; [2]) was 6.02 and the “Hill Slope” value (CDK9_CycT1; slope of the IC50 fit) was -1.23.
